Biological target: T1, PDGF receptor (Rattus norvegicus, UniProt Q05030)
T1 construct: cultured rat mesangial cells which are known to have the PDGF receptor; endogenous in cells; host or cells: primary mesangial cells cultured from glomeruli of Wistar-Kyoto rats (Charles River Japan), more than 5 passages
Experiment: PDGF receptor autophosphorylation inhibition in cultured rat mesangial cells
Type: cell-based
Conditions: PDGF-BB 50 ng/ml
Description: 1. Cultivation of rat mesangial cells
The glomerulus-derived adhesive cells were subcultured several times to obtain mesangial cells. The mesangial cells subcultured more than 5 passages were used for the assay.
2.Evaluation of PDGF receptor autophosphorylation inhibition
The mesangial cells were seeded in 24-well flat-bottom microtiter plates and then cultured in the medium containing 10% FCS for 2 days. When the cells were grown to about 3×10^4 cells per well, the medium was changed to the medium containing 0.5% FCS, the cultivation was continued for another 3 days, and then cell growth was arrested. The culture medium was removed, the adhered cells were washed with 500 μl of the medium, and 250 μl of the medium containing 0.1% bovine serum albumin (hereinafter abbreviated to BSA) was then added. A test drug dissolved in 1.38 μl of dimethyl sulfoxide (hereinafter abbreviated to DMSO) was added to this culture medium, and the admixture was incubated at 37° C. for 1 hour. Recombinant human platelet-derived growth factor BB chain (hereinafter abbreviated to PDGF-BB) was dissolved in the medium containing 0.1% BSA, 25 μl per well of the solution was added at final 50 ng/ml, and the incubation was continued at 37° C. for 10 minutes. […] The cells were allowed to stand at 4° C. for 30 minutes for lysis, and the resulting solution was thoroughly admixed with an equal amount of Tris-buffered physiological saline containing 1% sodium dodecyl sulfate (hereinafter abbreviated to SDS). […] After the electrophoresis, proteins in the gel were electrically transferred to a PVDF filter, which was then subjected to Western blotting using monoclonal antibodies against phosphotyrosine. Bands of PDGF receptor (molecular weight: about 180 Kda) which were autophosphorylated due to the addition of PDGF-BB were quantitated by a densitometer. Autophosphorylation rates for individual wells with drugs were calculated by setting measurements for PDGF receptor autophosphorylation in the wells without drugs in the presence and absence of PDGF-BB as 100% and 0%, respectively.

T1 sequence (Q05030 32-1097): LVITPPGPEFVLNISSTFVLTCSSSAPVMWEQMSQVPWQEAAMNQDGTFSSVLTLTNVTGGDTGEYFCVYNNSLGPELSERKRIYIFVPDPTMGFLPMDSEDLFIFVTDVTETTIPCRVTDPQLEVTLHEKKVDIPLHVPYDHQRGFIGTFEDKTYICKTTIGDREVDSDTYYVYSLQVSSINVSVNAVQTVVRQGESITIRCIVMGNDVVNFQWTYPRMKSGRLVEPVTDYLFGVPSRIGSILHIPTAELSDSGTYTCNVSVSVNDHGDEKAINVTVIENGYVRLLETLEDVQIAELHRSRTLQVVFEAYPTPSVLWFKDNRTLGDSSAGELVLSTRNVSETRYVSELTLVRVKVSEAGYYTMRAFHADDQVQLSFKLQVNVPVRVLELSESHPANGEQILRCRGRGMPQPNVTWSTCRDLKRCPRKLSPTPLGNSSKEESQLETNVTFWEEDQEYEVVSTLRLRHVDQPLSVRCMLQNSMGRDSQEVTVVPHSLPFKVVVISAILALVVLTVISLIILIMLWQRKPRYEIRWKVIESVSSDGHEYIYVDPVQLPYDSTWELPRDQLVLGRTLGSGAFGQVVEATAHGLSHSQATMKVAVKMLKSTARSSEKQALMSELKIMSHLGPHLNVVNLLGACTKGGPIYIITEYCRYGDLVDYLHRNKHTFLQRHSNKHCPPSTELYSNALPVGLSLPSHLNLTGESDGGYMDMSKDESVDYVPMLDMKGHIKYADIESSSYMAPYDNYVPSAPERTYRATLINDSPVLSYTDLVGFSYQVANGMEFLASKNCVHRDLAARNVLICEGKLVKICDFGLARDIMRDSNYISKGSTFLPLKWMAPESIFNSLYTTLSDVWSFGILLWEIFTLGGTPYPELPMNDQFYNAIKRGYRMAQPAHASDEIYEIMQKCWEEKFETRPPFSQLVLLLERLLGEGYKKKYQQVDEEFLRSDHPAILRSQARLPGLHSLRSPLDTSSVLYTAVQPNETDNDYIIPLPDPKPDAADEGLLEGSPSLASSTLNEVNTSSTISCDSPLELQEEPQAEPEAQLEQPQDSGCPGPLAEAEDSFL

SMILES	IC50 [nM]
COc1cc(NC(=O)Nc2ccc(Oc3ccnc4cc(OC)c(OC)cc34)cc2)cc(OC)c1 [Compound 259, N-(3,5-Dimethoxyphenyl)-N'-{4-[(6,7-dimethoxy-4-quinolyl)oxy]phenyl}urea]	5
CCOC(=O)c1cccc(NC(=O)Nc2ccc(Oc3ccnc4cc(OC)c(OC)cc34)cc2)c1 [Compound 233, N-(3-Ethoxycarbonylphenyl)-N'-{4-[(6,7-dimethoxy-4-quinolyl)oxy]phenyl}urea]	13
COc1cc2nccc(Oc3ccc(NC(=O)Nc4ccc([N+](=O)[O-])cc4)cc3)c2cc1OC [Compound 46, N-{4-[(6,7-Dimethoxy-4-quinolinyl)oxy]phenyl}-N'-(4-nitrophenyl)urea]	21
COCCNC(=O)Nc1ccc(Oc2ccnc3cc(OC)c(OC)cc23)cc1 [Compound 246, N-(2-Methoxyethyl)-N'-{4-[(6,7-dimethoxy-4-quinolyl)oxy]phenyl}urea]	13
CCc1ccc(NC(=O)Nc2ccc(Oc3ccnc4cc(OC)c(OC)cc34)cc2)cc1 [Compound 188, N-(4-Ethylphenyl)-N'-{4-[(6,7-dimethoxy-4-quinolyl)oxy]phenyl}urea]	6
COc1cc2nccc(Oc3ccc(NC(=O)Nc4ccccc4O)cc3)c2cc1OC [Compound 281, N-(2-Hydroxyphenyl)-N'-{4-[(6,7-dimethoxy-4-quinolyl)oxy]phenyl}urea]	12
COc1ccccc1NC(=O)Nc1ccc(Oc2ncnc3cc(OC)c(OC)cc23)cc1 [Compound 113, N-{4-[(6,7-Dimethoxy-4-quinazolinyl)oxy]phenyl)-N'-(2-methoxyphenyl)urea]	4
COc1cc2nccc(Oc3ccc(NC(=O)Nc4ccccc4Cl)cc3)c2cc1OC [Compound 266, N-(2-Chlorophenyl)-N'-{4-[(6,7-dimethoxy-4-quinolyl)oxy]phenyl}urea]	1
CCCCNC(=O)Nc1ccc(Oc2ncnc3cc(OC)c(OC)cc23)cc1 [Compound 220, N-(4-[(6,7-Dimethoxy-4-quinazolinyl)oxy]phenyl)-N'-n-butylurea]	9
COc1cc2nccc(Oc3ccc(NC(=O)NC(=O)c4ccccc4)cc3)c2cc1OC [Compound 189, N-Benzoyl-N'-{4-[(6,7-dimethoxy-4-quinolyl)oxy]phenyl}urea]	11
COc1cc2nccc(Oc3ccc(NC(=O)c4ccc([N+](=O)[O-])cc4)cc3)c2cc1OC [Compound 66, N-{4-[(6,7-Dimethoxy-4-quinolinyl)oxy]phenyl}-(4-nitrophenyl)carboxamide]	130
COc1cc2nccc(Oc3ccc(NC(=O)Nc4ccc(SC)cc4)cc3)c2cc1OC [Compound 163]	5
COc1cc2nccc(Oc3ccc(NC(=O)Nc4ccc(Oc5ccc(F)cc5)nc4)cc3)c2cc1OC [Compound 279, N-{5-[2-(4-fluoro)phenoxy]-pyridyl}-N'-(4-[(6,7-dimethoxy-4-quinolyl)oxy]phenyl}urea]	29
COc1cc2nccc(Oc3ccc(NC(=O)NC4CCCCC4)cc3)c2cc1OC [Compound 253, N-(Cyclohexyl)-N'-{4-[(6,7-dimethoxy-4-quinolyl)oxy]phenyl}urea]	7
COc1cc2nccc(Oc3ccc(NC(=O)Nc4ccc(C(C)=O)cc4)cc3)c2cc1OC [Compound 49, N-(4-Acetylphenyl)-N'-{4-[(6,7-dimethoxy-4-quinolinyl)oxy]phenyl}urea]	18
COc1cc(OC)c(NC(=O)Nc2ccc(Oc3ccnc4cc(OC)c(OC)cc34)cc2)cc1Cl [Compound 241, N-(3-Chloro-4,6-dimethoxyphenyl)-N'-{4-[(6,7-dimethoxy-4-quinolyl)oxy]phenyl}urea]	18
CCCCc1ccccc1NC(=O)Nc1ccc(Oc2ccnc3cc(OC)c(OC)cc23)cc1 [Compound 232, N-(2-n-Butylphenyl)-N'-(4-[(6,7-dimethoxy-4-quinolyl)oxy]phenyl}urea]	18
CCCCOc1ccc(C(=O)Nc2ccc(Oc3ccnc4cc(OC)c(OC)cc34)cc2)cc1 [Compound 74, N-{4-[(6,7-Dimethoxy-4-quinolinyl)oxy]phenyl}-(4-butoxyphenyl)carboxamide]	340
COc1cc2nccc(Oc3ccc(NC(=O)c4ccc(N(C)C)cc4)cc3)c2cc1OC [Compound 67, N-{4-[(6,7-Dimethoxy-4-quinolinyl)oxy]phenyl}-(N,N-dimethylaminophenyl)carboxamide]	110
COc1cc2nccc(Oc3ccc(NC(=O)NCc4ccc(N(C)C)cc4)cc3)c2cc1OC [Compound 251, N-{4-[(6,7-Dimethoxy-4-quinolyl)oxy]phenyl}-N'-[(4-dimethylaminophenyl)methyl]urea]	36

SMILES	IC50 [nM]
COc1cc2nccc(Oc3ccc(C(=O)c4ccc(N5CCCC5)cc4)cc3)c2cc1OC [Compound 289, (4-[{6,7-Dimethoxy-4-quinolyl)oxy]phenyl)[4-pyrrolidinophenyl]methanone]	32
COc1cc2nccc(Oc3ccc4[nH]ccc4c3)c2cc1OC [Compound 16, 6,7-Dimethoxy-4-(5-indolyloxy)quinoline]	50
COc1ccc(NC(=O)N(C)c2ccc(Oc3ccnc4cc(OC)c(OC)cc34)cc2)cc1 [Compound 200, N-Methyl-N-{4-[(6,7-dimethoxy-4-quinolyl)oxy]phenyl}-N'-(4-methoxyphenyl)urea]	4
COc1cccc(NC(=O)Nc2ccc(Oc3ncnc4cc(OC)c(OC)cc34)cc2)c1 [Compound 114, N-{4-[(6,7-Dimethoxy-4-quinazolinyl)oxy]phenyl}-N'-(3-methoxyphenyl)urea]	4
COc1cc2nccc(Oc3ccc(NC(=O)NCc4ccc(C(C)(C)C)cc4)cc3)c2cc1OC [Compound 248, N-[(4-tert-Butylphenyl)methyl]-N'-{4-[(6,7-dimethoxy-4-quinolyl)oxy]phenyl}urea]	63
COc1cc2nccc(Oc3ccc(NC(=O)NC(C)C)cc3)c2cc1OC [Compound 135]	43
COc1cc2nccc(Oc3ccc(NC(=O)C4CCCCC4)cc3)c2cc1OC [Compound 63, N-{4-[(6,7-Dimethoxy-4-quinolinyl)oxy]phenyl}-cyclohexanecarboxamide]	400
COc1cc2nccc(Oc3ccc(NC(=O)Nc4ccc5c(c4)OCCO5)cc3)c2cc1OC [Compound 199, N-(3,4-Ethylenedioxyphenyl)-N'-{4-[(6,7-dimethoxy-4-quinolyl)oxy]phenyl}urea]	3
COc1cc2nccc(Oc3ccc(NC(=O)Nc4ccc(O)cc4)cc3)c2cc1OC [Compound 269, N-(4-Hydroxyphenyl)-N'-{4-[(6,7-dimethoxy-4-quinolyl)oxy]phenyl}urea]	8
COc1cc2nccc(Oc3ccc(NC(=O)Nc4ccccc4C(C)C)cc3)c2cc1OC [Compound 166, N-(2-Isopropylphenyl)-N'-{4-[(6,7-dimethoxy-4-quinolyl)oxy]phenyl}urea]	11
COc1cc2nccc(Oc3ccc(NC(=O)Nc4cccc(O)c4)cc3)c2cc1OC [Compound 282, N-(3-Hydroxyphenyl)-N'-{4-[(6,7-dimethoxy-4-quinolyl)oxy]phenyl}urea]	8
COc1cc2nccc(Oc3ccc(NC(=O)Nc4cc(F)ccc4F)cc3)c2cc1OC [Compound 273, N-(2,5-Difluorophenyl)-N'-{4-[(6,7-dimethoxy-4-quinolyl)oxy]phenyl}urea]	5
CCCCNC(=O)Nc1ccc(Oc2ccnc3cc(OC)c(OC)cc23)cc1 [Compound 139, N-n-Butyl-N'-{4-[(6,7-dimethoxy-4-quinolyl)oxy]phenyl}urea]	5
COc1cc2nccc(Oc3ccc(NC(=O)Nc4ccc(Cl)c([N+](=O)[O-])c4)cc3)c2cc1OC [Compound 228, N-(4-Chloro-3-nitrophenyl)-N'-{4-[(6,7-dimethoxy-4-quinolyl)oxy]phenyl}urea]	55
COc1cc2nccc(Oc3ccc(NC(=O)Nc4ccc(F)c(F)c4F)cc3)c2cc1OC [Compound 257, N-(2,3,4-Trifluorophenyl)-N'-{4-[(6,7-dimethoxy-4-quinolyl)oxy]phenyl}urea]	7
COc1cc2nccc(Oc3ccc(NC(=O)Nc4ccc(C)cc4)cc3)c2cc1OC [Compound 131]	3
COc1cc2nccc(Oc3ccc(NC(=O)c4ccc(C(C)=O)cc4)cc3)c2cc1OC [Compound 68, N-{4-[(6,7-Dimethoxy-4-quinolinyl)oxy]phenyl}-(4-acetylphenyl)carboxamide]	440
COc1cc2nccc(Oc3ccc(NC(=O)Nc4ccccc4-c4ccccc4)cc3)c2cc1OC [Compound 175, N-(2-Biphenyl)-N'-{4-[(6,7-dimethoxy-4-quinolyl)oxy]phenyl}urea]	6
COc1cc2nccc(Oc3ccc(NC(=O)Nc4ccc(Cl)cc4[N+](=O)[O-])cc3)c2cc1OC [Compound 238, N-(4-Chloro-2-nitrophenyl)-N'-{4-[(6,7-dimethoxy-4-quinolyl)oxy]phenyl}urea]	16
